{
  "source": "patent US9056923B2",
  "about": "“Mimetic peptides derived from collagen type IV and their use for treating angiogenesis- and lymphagiogenesis-dependent diseases” (THE JOHNS HOPKINS UNIVERSITY, priority 2010, dated 2015)",
  "key": {"HUVEC [1]": {"system": "HUVEC", "format": "cell-based, human", "how_it_was_run": "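HUVEC plated at 2000 cells/well overnight, then exposed to peptides in fully supplemented medium for three days. WST-1 added in serum-free EBM-2 for four hours and absorbance read at 450 nm. Percent live cells taken relative to untreated cells in complete medium with 0.2% DMSO.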"}, "HUVEC [2]": {"system": "HUVEC", "test": "HUVEC migration assay (RT-CIM)", "format": "cell-based, human", "how_it_was_run": "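Real-time impedance (RT-CIM) transwell migration through fibronectin-coated (20 μg/mL) 8 μm membranes; 45,000 cells/well in serum-free medium ± peptides, fully supplemented EBM-2 as chemoattractant below. Cell index recorded over 20 h at 37 °C; ≥2 independent replicates, each in duplicate.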"}, "HUVEC [3]": {"system": "HUVEC", "format": "cell-based, human", "settings": "HUVEC", "how_it_was_run": "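Adhesion of 25,000 cells per well, with or without peptide, followed by real-time electrical impedance on electrode plates over 3 hours. At least two independent replicates, each run in duplicate.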"}, "HUVEC [4]": {"system": "HUVEC", "test": "HUVEC tube formation assay on Matrigel", "format": "cell-based, human", "how_it_was_run": "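HUVEC (15,000/well) plated on polymerized Matrigel in complete media with or without peptide for 19 h at 37 °C. Tube networks imaged by microscopy, one random field per well, in triplicate wells across at least two independent experiments.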"}, "MDA-MB-231 xenograft": {"system": "MDA-MB-231 xenograft", "test": "MDA-MB-231 orthotopic breast tumor xenograft", "format": "in vivo, SCID mice", "protocol": "For primary tumor inhibition studies, 1−2×10^6 tumor cells were injected into 4-6 wk old female SCID mice. After the tumors reached a size of 100 mm^3 the animals were randomized into groups of 10 animals each. The animals were treated with vehicle, SP2012, SP2000, or SP2024. The peptides were administered subcutaneously daily. Dosing was continued for 3 or 4 weeks and tumor sizes were measured every 3 days using calipers. The tumor volume was estimated using the formula V=a^2b/2 where a and b are the smaller and larger diameters.\nFor the tumor xenograft assay, animals were housed and treated according to the approved animal protocol of the Institutional Care and Use Committee at Johns Hopkins Medical Institution (JHMI). Orthotopic breast tumors were initiated in SCID mice using MDA-MB-231 cells. 2×10^6 cells per 100 μL aliquot of single cell suspension were injected in the breast mannary fat pad. Tumors reached volumes of 75 mm^3 to 100 mm^3 in approximately 14-21 days. Mice were randomized and arranged in groups (8 mice per group) with similar tumor volumes (no statistical difference among averages) and treatment was commenced. Peptides were administered once per day intraperitoneally (i.p.) at doses of 10 mg/kg (subcutaneous delivery was also tested with certain peptides). Paclitaxel was administered at 5 mg/kg once a week, and to maintain the daily treatment regime PBS was administered on the non-treatment days. Tumors were measured every fourth day using calipers and the tumor volume was calculated using the formula V=ab^2/2, where a is the larger diameter and b is the smaller diameter."}, "[5]": {"system": "MDA-MB-231 breast cancer cells", "test": "MDA-MB-231 wound healing type migration assay (Oris Pro)", "format": "cell-based", "protocol": "Breast cancer cells MDA-MB-231 are not suitable for the RT-CIM type experiments due to their thin elongated phenotype, thus the inhibition of migration was investigated using a wound healing type assay. This assay was performed using the Oris Pro Migration assay (Platypus Technologies, CMA 1.101). Briefly, 20,000-25,000 cells/well in full media were added to the 96 well plate containing stoppers to block migration of cells to the center region of the wells. Cells were allowed to adhere for 4 hours, after which the stoppers were removed. Cells were washed one time with PBS and fully supplemented media, with or without compound, was added to the wells. […], cells were stained with calcein AM (0.5 μg/mL) (Invitrogen, CA) and the cells that migrated to the center of the well were quantified by fluorescence intensity measured using a Victor V plate reader (Perkin Elmer) and also imaged using a Leica or Nikon microscope."}, "[6]": {"system": "MDA-MB-231 breast cancer cells", "test": "MDA-MB-231 adhesion assay", "format": "cell-based", "protocol": "(§1) Similar to the migration assays, the inhibition activity of the peptide in cellular adhesion was assessed using the RT-CIM technology. In this case, 25,000 cells/well were plated in 16 wells E-plates (Roche, Basel Switzerland) in the presence or absence of the peptide. The adhesion was monitored over time (3 hours) by measuring changes in the electrical impedance, which is a direct measure of the cells adhering on the electrodes. […] Assays were performed in at least two independent replicates and each replicate was performed using two experimental duplicates."}, "[7]": {"system": "lymphatic endothelial cells (LEC)", "test": "LEC adhesion assay", "format": "cell-based", "protocol": "as §1"}, "[8]": {"system": "lymphatic endothelial cells (LEC)", "test": "LEC migration assay", "format": "cell-based", "protocol": "(§2) The inhibitory potential of the peptides was measured using a real time migration assay system based on electrical impedance (RT-CIM, ACEA Biosciences, CA). CIM 16 well plates (Roche, 05665817001) are composed of a top and bottom chamber separated by a microporous (8 μm) polycarbonate membrane. The membrane was coated with fibronectin (20 μg/mL), and 45,000 cells/well in serum free media with or without peptides were added to the top compartment. Media with chemoattractant (i.e., fully supplemented EBM-2) was added to the bottom compartment of the chamber and the plate was incubated at 37° C. for 20 hours. The sensors integrated on the bottom side of the membrane monitor and continuously record changes in impedance as the cells move through the membrane. The RT-CIM technology allows for easy quantification of cell migration by monitoring the cell index derived from the measured impedances. Assays were performed in at least two independent replicates and each replicate was performed using two experimental duplicates."}, "[9]": {"system": "microvascular endothelial cells (MEC)", "test": "MEC adhesion assay", "format": "cell-based", "protocol": "as §1"}, "[10]": {"system": "microvascular endothelial cells (MEC)", "test": "MEC migration assay", "format": "cell-based", "protocol": "as §2"}, "[11]": {"settings": "Yes/No summary, active = inhibitory potential greater than 30%"}},
  "note": "Read-outs that look alike come from different tables or passages of the source. Square brackets hold non-standard residues; d marks the D form. Peptide text beside a SMILES is read from it. Abu = CC[C@H](N)C(=O)O",
  "data": [
    {"smiles": "CC[C@H](NC(=O)[C@H](Cc1ccccc1)NC(=O)[C@H](CCSC)NC(=O)[C@H](Cc1ccccc1)NC(=O)[C@@H]1CCCN1C(=O)[C@H](CCSC)NC(=O)[C@@H](NC(=O)[C@H](CO)NC(=O)[C@H](Cc1ccccc1)NC(=O)[C@H](CCCNC(=N)N)NC(=O)[C@H](CCCNC(=N)N)NC(=O)[C@@H](N)CC(C)C)[C@@H](C)O)C(=O)N[C@@H](CC(N)=O)C(=O)N[C@H](C(=O)N[C@@H](CC(N)=O)C(=O)N[C@@H](CC(N)=O)C(=O)N[C@H](C(=O)N[C@@H](CC)C(=O)N[C@@H](CC(N)=O)C(=O)N[C@@H](Cc1ccccc1)C(N)=O)C(C)C)[C@@H](C)CC", "note": "[SP2012, LRRFSTMPFMFAbuNINNVAbuNF] (H-LRRFSTMPFMF[Abu]NINNV[Abu]NF-NH2; N-terminus assumed)", "values": [
      {"measurement": "IC50", "setting": "HUVEC [1]", "result": 22, "unit": "µM"},
      {"measurement": "Activity in Proliferation", "setting": "HUVEC [1]; HUVEC, Yes/No summary", "result": "Yes"},
      {"measurement": "IC50", "setting": "HUVEC [1]; HUVEC, tables 5, 8-10 and text, read-out: IC50 ± 95% CI (μM), proliferation", "result": "48.1 ± 23.1", "unit": "µM"},
      {"measurement": "Migration Inhibition (5 uM)", "setting": "HUVEC [2]; 5 uM peptide", "result": "0% (5 uM)"},
      {"measurement": "Migration Inhibition (50 uM)", "setting": "HUVEC [2]; 50 uM peptide", "result": 68, "unit": "%"},
      {"measurement": "Activity in Migration", "setting": "HUVEC [2]; [11]", "result": "Yes"},
      {"measurement": "Adhesion Inhibition (100 uM)", "setting": "HUVEC [3]; 100 uM peptide", "result": 93.14, "unit": "%"},
      {"measurement": "Activity in Adhesion", "setting": "HUVEC [3]; [11]", "result": "Yes"},
      {"measurement": "Tube formation Inhibition", "setting": "HUVEC [4]; (l0 uM) printed in the cell", "result": "Complete"},
      {"measurement": "Activity in Tube formation", "setting": "HUVEC [4]; Yes/No summary", "result": "Yes"},
      {"measurement": "suppression of tumor growth", "setting": "MDA-MB-231 xenograft; MDA-MB-231 xenograft in mice, 10 mg/kg daily", "result": "tumor growth was inhibited"},
      {"measurement": "microvascular density", "setting": "MDA-MB-231 xenograft; after completion of the treatment at 21 days", "result": "statistically different from one another"},
      {"measurement": "MDA-MB-231 xenograft inhibition", "setting": "MDA-MB-231 xenograft; mice", "result": "Active"},
      {"measurement": "inhibition of migration of MDA-MB-231 cells", "setting": "[5]", "result": "strong"},
      {"measurement": "Migration of MDA-MB-231 cells into the restricted area", "setting": "[5]; 50 μM and 5 μM treatments, 17 hours of incubation", "result": "statistically significant versus the control"},
      {"measurement": "inhibition of adhesion of MDA-MB-231 cells", "setting": "[6]", "result": "strong"},
      {"measurement": "inhibition of adhesion of LEC", "setting": "[7]", "result": "strong"},
      {"measurement": "inhibition of migration of LEC", "setting": "[8]", "result": "strong"},
      {"measurement": "inhibition of adhesion of MEC", "setting": "[9]", "result": "quite active"},
      {"measurement": "inhibition of migration of MEC", "setting": "[10]", "result": "quite active"}
    ]}
  ]
}
